From ChEMBL document CHEMBL1157385, “(Iso)-quinoline alkaloids from fungal fruiting bodies of Cortinarius subtortus” (J Nat Prod, 2008)

Assays:
Colletotrichum coccodes = experiment: Growth inhibition of Colletotrichum coccodes (Wallr.) S. Hughes at 100 uM after 6 days; assay type: functional, organism-based; conditions: 144 h
[1] = system: Radical scavenging activity; experiment: Antioxidant activity assessed as DPPH free radical scavenging activity at 1 mM; assay type: functional

For Oc1cccc2cccnc12 [QUINOSOL], the EC50 (Colletotrichum coccodes) was 0.19 µM.

O=C1O[C@H]([C@@H](O)CO)C(O)=C1O [ASCORBIC ACID] showed an EC50 [1] of 45 µM.

Molecule O=C(O)c1cc(O)cc2c(=O)[nH]ccc12 has an Activity [1] of 21%.

Molecule O=C(O)c1cc(O)cc2cccnc12 has an Activity [1] of 15% and an inhibition at 100 µM (Colletotrichum coccodes) of 71%.

In the case of Nc1ccnc2c(C(=O)O)cc(O)cc12, the Activity [1] is reported as 12%.
